Literature values in patent publication US20060172014A1, “Treatment of lung cancer with active vitamin D compounds in combination with other treatments” (Novacea, Inc., priority 2003, published 2006).

Assays:
[1] = tested on: patients with refractory malignancies; settings: weekly HDPA of calcitriol; Beer et al.

**Q.** What does the source list for `C=C1/C(=C\C=C2/CCC[C@]3(C)[C@@H]([C@H](C)CCCC(C)(C)O)CC[C@@H]23)C[C@@H](O)C[C@@H]1O` [calcitriol, 1α,25-dihydroxyvitamin D3]?
**A.** Dose-limiting toxicity [1]: no dose-limiting toxicity; Mean peak calcitriol levels [1]: within the therapeutic range; Growth of lung cancer cell line (lung cancer cell line; cell line containing high levels of vitamin D receptor): inhibit the growth; Growth of lung cancer cell lines (lung cancer cell line; cell lines having insignificant levels of the receptor): not
